From paper PMC4019989 (Clinical cancer research : an official journal of the …, 2009)

Tested on: patients with relapsed or refractory hematologic malignancies
Assay: Phase 1 dose escalation: adverse events, DLT, MTD
Format: in vivo
[1] = All patients (N = 29), all dose cohorts

CC(C)C[C@H](NC(=O)[C@H](CCc1ccccc1)NC(=O)CN1CCOCC1)C(=O)N[C@@H](Cc1ccccc1)C(=O)N[C@@H](CC(C)C)C(=O)[C@@]1(C)CO1 [carfilzomib]
Grade 3 and 4 adverse events: ALT increased, Grades 3-4 (All patients (N = 29), Table 4): 1 (3) n (%)
Grade 3 and 4 adverse events: AST increased, Grade 3 (All patients (N = 29), Table 4): 1 (3) n (%)
Grade 3 and 4 adverse events: AST increased, Grade 4 (All patients (N = 29), Table 4): 0 (0) n (%)
Grade 3 and 4 adverse events: AST increased, Grades 3-4 (All patients (N = 29), Table 4): 1 (3) n (%)
Grade 3 and 4 adverse events: Abdominal pain, Grade 3 (All patients (N = 29), Table 4): 1 (3) n (%)
Grade 3 and 4 adverse events: Abdominal pain, Grade 4 (All patients (N = 29), Table 4): 0 (0) n (%)
Grade 3 and 4 adverse events: Abdominal pain, Grades 3-4 (All patients (N = 29), Table 4): 1 (3) n (%)
Grade 3 and 4 adverse events: Anemia, Grades 3-4 (All patients (N = 29), Table 4): 1 (3) n (%)
Grade 3 and 4 adverse events: Any, Grade 3 (All patients (N = 29), Table 4): 11 (38) n (%)
Grade 3 and 4 adverse events: Any, Grades 3-4 (All patients (N = 29), Table 4): 14 (48) n (%)
Grade 3 and 4 adverse events: Chills, Grade 3 (All patients (N = 29), Table 4): 1 (3) n (%)
Grade 3 and 4 adverse events: Chills, Grade 4 (All patients (N = 29), Table 4): 0 (0) n (%)
Grade 3 and 4 adverse events: Chills, Grades 3-4 (All patients (N = 29), Table 4): 1 (3) n (%)
Grade 3 and 4 adverse events: Disease progression, Grade 3 (All patients (N = 29), Table 4): 1 (3) n (%)
Grade 3 and 4 adverse events: Disease progression, Grade 4 (All patients (N = 29), Table 4): 0 (0) n (%)
Grade 3 and 4 adverse events: Disease progression, Grades 3-4 (All patients (N = 29), Table 4): 1 (3) n (%)
Grade 3 and 4 adverse events: Hyperglycemia, Grade 3 (All patients (N = 29), Table 4): 1 (3) n (%)
Grade 3 and 4 adverse events: Hyperglycemia, Grade 4 (All patients (N = 29), Table 4): 0 (0) n (%)
Grade 3 and 4 adverse events: Hyperglycemia, Grades 3-4 (All patients (N = 29), Table 4): 1 (3) n (%)
Grade 3 and 4 adverse events: Neutropenia, Grade 3 (All patients (N = 29), Table 4): 1 (3) n (%)
Grade 3 and 4 adverse events: Neutropenia, Grade 4 (All patients (N = 29), Table 4): 0 (0) n (%)
Grade 3 and 4 adverse events: Neutropenia, Grades 3-4 (All patients (N = 29), Table 4): 1 (3) n (%)
Grade 3 and 4 adverse events: Pain, Grade 3 (All patients (N = 29), Table 4): 1 (3) n (%)
Grade 3 and 4 adverse events: Pain, Grade 4 (All patients (N = 29), Table 4): 0 (0) n (%)
Grade 3 and 4 adverse events: Pain, Grades 3-4 (All patients (N = 29), Table 4): 1 (3) n (%)
Grade 3 and 4 adverse events: Skin infection, Grade 3 (All patients (N = 29), Table 4): 1 (3) n (%)
Grade 3 and 4 adverse events: Skin infection, Grade 4 (All patients (N = 29), Table 4): 0 (0) n (%)
Grade 3 and 4 adverse events: Skin infection, Grades 3-4 (All patients (N = 29), Table 4): 1 (3) n (%)
Grade 3 and 4 adverse events: Syncope, Grade 3 (All patients (N = 29), Table 4): 1 (3) n (%)
Grade 3 and 4 adverse events: Syncope, Grade 4 (All patients (N = 29), Table 4): 0 (0) n (%)
Grade 3 and 4 adverse events: Syncope, Grades 3-4 (All patients (N = 29), Table 4): 1 (3) n (%)
Grade 3 and 4 adverse events: Thrombocytopenia, Grade 3 (All patients (N = 29), Table 4): 0 (0) n (%)
Adverse event Any, All Grades [1]: 29 (100) n (%)
Adverse event Any, Grade 1 [1]: 4 (14) n (%)
Adverse event Any, Grade 2 [1]: 11 (38) n (%)
Adverse event Any, Grade 3 [1]: 11 (38) n (%)
Adverse event Any, Grade 4 [1]: 3 (10) n (%)
Adverse event Constipation, All Grades [1]: 6 (21) n (%)
Adverse event Constipation, Grade 1 [1]: 5 (17) n (%)
Adverse event Constipation, Grade 2 [1]: 1 (3) n (%)
Adverse event Constipation, Grade 3 [1]: 0 (0) n (%)
Adverse event Constipation, Grade 4 [1]: 0 (0) n (%)
Adverse event Cough, All Grades [1]: 8 (28) n (%)
Adverse event Cough, Grade 1 [1]: 8 (28) n (%)
Adverse event Cough, Grade 2 [1]: 0 (0) n (%)
Adverse event Cough, Grade 3 [1]: 0 (0) n (%)
Adverse event Cough, Grade 4 [1]: 0 (0) n (%)
Adverse event Diarrhea, All Grades [1]: 10 (35) n (%)
Adverse event Diarrhea, Grade 1 [1]: 7 (24) n (%)
Adverse event Diarrhea, Grade 2 [1]: 3 (10) n (%)
Adverse event Diarrhea, Grade 3 [1]: 0 (0) n (%)
Adverse event Diarrhea, Grade 4 [1]: 0 (0) n (%)
Adverse event Pyrexia, Grade 1 [1]: 5 (17) n (%)
Adverse event Pyrexia, Grade 2 [1]: 3 (10) n (%)
Adverse event Pyrexia, Grade 3 [1]: 0 (0) n (%)
Adverse event Pyrexia, Grade 4 [1]: 0 (0) n (%)
Patients who discontinued study treatment due to adverse events (Four of the 29 patients): 14%
Patients with grade 2 anemia (across all cohorts): three
Incidence of anemia (across all cohorts, five patients, doses 1.2 to 15 mg/m^2): 17%
Adverse event Dyspnea, All Grades (human, in vivo): 8 (28) n (%)
Adverse event Dyspnea, Grade 1 (human, in vivo): 6 (21) n (%)
Adverse event Dyspnea, Grade 2 (human, in vivo): 0 (0) n (%)
Adverse event Dyspnea, Grade 3 (human, in vivo): 1 (3) n (%)
Adverse event Dyspnea, Grade 4 (human, in vivo): 1 (3) n (%)
Adverse event Exertional dyspnea, All Grades (human, in vivo): 6 (21) n (%)
Adverse event Exertional dyspnea, Grade 1 (human, in vivo): 6 (21) n (%)
Adverse event Exertional dyspnea, Grade 2 (human, in vivo): 0 (0) n (%)
Adverse event Exertional dyspnea, Grade 3 (human, in vivo): 0 (0) n (%)
Adverse event Exertional dyspnea, Grade 4 (human, in vivo): 0 (0) n (%)
Adverse event Fatigue, All Grades (human, in vivo): 14 (48) n (%)
Adverse event Fatigue, Grade 1 (human, in vivo): 10 (35) n (%)
Adverse event Fatigue, Grade 2 (human, in vivo): 3 (10) n (%)
Adverse event Fatigue, Grade 3 (human, in vivo): 1 (3) n (%)
Adverse event Fatigue, Grade 4 (human, in vivo): 0 (0) n (%)
Adverse event Headache, All Grades (human, in vivo): 7 (24) n (%)
Adverse event Headache, Grade 1 (human, in vivo): 7 (24) n (%)
Adverse event Headache, Grade 2 (human, in vivo): 0 (0) n (%)
Adverse event Headache, Grade 3 (human, in vivo): 0 (0) n (%)
